{"source": "paper PMC4747407", "about": "(Oncotarget, 2015)", "key": {"PARP3 or PARPs 6–16": {"test_system": "PARP3 or PARPs 6–16", "test": "32P-NAD+ auto-PARylation selectivity screen", "type": "biochemical, human", "settings": "32P-NAD+ auto-PARylation screen", "protocol": "Samples were analyzed via phosphorimaging."}, "[1]": {"test_system": "MX-1 human breast cancer xenografts", "type": "in vivo", "protocol": "All studies were performed according to IACUC approved protocols. The general health of mice was monitored daily. Tumor volume was determined by caliper measurements (mm), using the formula (l x w^2)/2 = mm^3, where l and w refer to the larger and smaller perpendicular dimensions collected at each measurement. Tumor dimensions were recorded twice per week starting when tumors reached an approximate size of 100 to 150 mm^3. Body weights were recorded twice per week and relative body weight was calculated as follows: Relative body weight = (body weight on day of measurement/body weight on first day of treatment).\nCarboplatin combination in MX-1 orthotopic xenografts: female nude mice were implanted with MX-1 cells (0.5 × 10^6) in the thoracic mammary fat pad. Treatment started on day 3 when the average tumor size was approximately 50 mm^3. Carboplatin was administered as a single intravenous dose at 60 mg/kg on day 3 or 4."}, "[2]": {"test_system": "PARP activity in MDA-MB-436 tumor tissue", "test": "Pharmacodynamic PARP inhibition (PAR ELISA) in MDA-MB-436 tumor lysates", "type": "in vivo, mouse", "protocol": "(§1) Control group (10 mice) were treated with vehicle (0.5% methyl cellulose in water). Mice were euthanized and tumors were harvested at 1, 6, 12, 24 and 36 hours post treatment (5 mice per treatment per time point). Individual tumors were removed and flash frozen in liquid nitrogen for PAR analysis. PARP inhibition was also evaluated in tumors from NCI-H460 human lung cancer subcutaneous xenografts. Control group animals (24 mice) were treated with vehicle (0.5% methyl cellulose). […] Mice were euthanized and tumors were harvested at 0.25, 1, 6, 12, 24 and 36 hours post-treatment. PAR levels were determined by ELISA using the procedure provided by Trevigen and comparing to a PAR standard curve. Protein concentration of tumor lysates was determined using the BCA assay (Thermo Scientific). Results were converted from pg PAR/assay well to ng PAR/mg protein. Data was pooled from multiple experiments. The percent of control for each time point was calculated by using an average of all control replicates from that experiment."}, "[3]": {"test_system": "PARP activity in NCI-H460 tumor tissue", "test": "Pharmacodynamic PARP inhibition (PAR ELISA) in NCI-H460 tumors", "type": "in vivo, mouse", "protocol": "as §1"}, "[4]": {"test_system": "NCI-H460 human lung cancer xenografts", "test": "NCI-H460 lung cancer xenograft model, antitumor activity", "type": "in vivo, mouse"}, "DLD-1 cells": {"test_system": "DLD-1 cells", "test": "Western blot of Wnt/β-catenin pathway proteins in DLD-1 cells", "type": "cell-based, human", "settings": "24 h", "protocol": "SW480, DLD-1 (Wnt-dependent) or RKO (Wnt-independent) cells were plated in 6-well plates and incubated overnight. Cells were treated with E7449, olaparib or XAV939 and incubated for various time periods prior to processing by SDS PAGE and western blot analysis. […] Following binding of appropriate secondary antibodies labeled with IRDye® (LI-COR), image analysis was performed with Image Studio software for the LI-COR Odyssey system (version 2.1.10)."}, "[5]": {"test": "Gastrointestinal toxicity in preclinical studies", "type": "in vivo"}}, "note": "“Also recorded” adds a separate entry of the source.", "data": [{"compound": "O=c1[nH]nc2c3c(cccc13)N=C(CN1Cc3ccccc3C1)N2", "note": "[E7449, 8-(isoindolin-2-ylmethyl)-2,9-dihydro-3H-pyridazino[3,4,5-de]quinazolin-3-one]", "values": [{"measurement": "inhibitory activity on PARP3 or PARPs 6–16", "setting": "PARP3 or PARPs 6–16", "value": "Significant inhibitory activity was not observed"}, {"measurement": "tolerability of combination with carboplatin", "setting": "[1]; E7449 100 mg/kg + carboplatin 60 mg/kg", "value": "well tolerated with no signs of toxicity or significant body weight loss"}, {"measurement": "antitumor activity, E7449 started 1 day post-carboplatin", "setting": "[1]; E7449 100 mg/kg once daily + carboplatin 60 mg/kg i.v.", "value": "closely resembled that observed with carboplatin alone"}, {"measurement": "antitumor activity, E7449 simultaneously with or prior to carboplatin", "setting": "[1]; E7449 100 mg/kg once daily + carboplatin 60 mg/kg i.v. single dose", "value": "enhanced the antitumor activity of carboplatin"}, {"measurement": "antitumor activity, single agent", "setting": "[1]; E7449 100 mg/kg oral once daily, carboplatin single i.v. dose 60 mg/kg", "value": "inactive; also recorded: No antitumor activity"}, {"measurement": "time of partial rebound of PARP activity", "setting": "[2]; single dose 30 mg/kg", "value": "≤ 12", "unit": "h"}, {"measurement": "duration of significant PARP inhibition in tumor", "setting": "[2]; single dose 100 mg/kg", "value": "at least 12 hours"}, {"measurement": "time of recovery of PARP activity to basal levels", "setting": "[2]; single dose 100 mg/kg", "value": "≤ 24", "unit": "h"}, {"measurement": "PARP inhibition in tumor at early time points", "setting": "[3]; single dose 1 mg/kg (lowest), 0.25 and 1 hour", "value": "significant PARP inhibition"}, {"measurement": "duration of complete PARP inhibition", "setting": "[3]; single dose 100 mg/kg", "value": "up to 12 hours"}, {"measurement": "time of rebound in PARP activity", "setting": "[3]; single dose 100 mg/kg", "value": 24, "unit": "h"}, {"measurement": "time of at least partial recovery of PARP activity to basal levels", "setting": "[3]; single dose 1 and 3 mg/kg", "value": "≤ 6", "unit": "h"}, {"measurement": "antitumor activity", "setting": "[4]", "value": "No antitumor activity"}, {"measurement": "effect on levels of β-catenin", "setting": "DLD-1 cells", "value": "robust effect on levels of β-catenin was not observed"}, {"measurement": "gastrointestinal toxicity", "setting": "[5]", "value": "no gastrointestinal toxicity was observed"}]}]}
